Data from patent US20200383985A1, “Inhibitors of Protease Activated Receptor-2” (Endosome Therapeutics, Inc., priority 2017, published 2020).
Like-named read-outs stand apart in the source and are kept apart here.

Columns and labels:
Type in all cases: cell-based
[1] = tested on: mouse DRG neurons; test: Patch clamp rheobase of DRG neurons: IBS-D biopsy supernatant-induced hyperexcitability
Procedure: An investigation as whether proteases from mucosal biopsies of IBS patients cause a persistent hyperexcitability of nociceptors was conducted by a mechanism that entails endosomal signaling of PAR2. Biopsies of colonic mucosa from patients with diarrhea-predominant IBS (IBS-D) or healthy control (HC) subjects were placed in culture medium (24 h, 37° C.). Mouse DRG neurons were then exposed to biopsy supernatants (30 min, 37° C.) and washed. Rheobase was measured 30 min after washing to assess persistent hyperexcitability. Supernatants of biopsies from IBS-D patients caused a persistent decrease in rheobase, consistent with hyperexcitability, when compared to supernatants from HC subjects (rheobase at 30 min: HC, 78.33±4.41 pA, 12 neurons, supernatant from 4 HC; IBS-D, 54.55±4.74 pA, 11 neurons, supernatant from 4 IBS-D; P<0.05; ANOVA, Tukey's multiple comparisons test) (FIG. 6A, B). I-343 (10 μM), Dy4 (dynamin inhibitor, 30 μM) and PD98059 (MEK1 inhibitor, 50 μM) abolished IBS-D-induced hyperexcitability of nociceptors (FIG. 6A-D).
The Queen's University Human Ethics Committee approved human studies. All subjects gave informed consent. Endoscopic biopsies were obtained from the descending colon of 13 adult IBS-D patients (12 female) diagnosed using ROME III criteria for diarrhea predominant IBS and of 12 health controls. All IBS patients had symptoms greater than 1 year and most were greater than 5 years. Celiac disease was excluded by blood test and patients over 40 years with daily diarrhea were biopsied at the time of colonoscopy to exclude microscopic colitis. […] Biopsies (8 samples per patient) were incubated in 250 μl of RPMI medium containing 10% fetal calf serum, penicillin/streptomycin and gentamicin/amphotericin B (95% O2/5% […], 24 h, 37° C.). Supernatants were stored at −80° C. Supernatants from 4-6 patients were pooled and studied in individual experiments.
DRG innervating the colon (T9-T13) were collected from C57BL/6 mice. Ganglia were digested by incubation in collagenase IV (1 mg/ml, Worthington) and dispase (4 mg/ml, Roche) (10 min, 37° C.). DRG were triturated with a fire-polished Pasteur pipette, and further digested (5 min, 37° C.). Neurons were washed, plated onto laminin- (0.017 mg/ml) and poly-D-lysine- (2 mg/ml) coated glass coverslips, and were maintained in F12 medium containing 10% fetal calf serum, penicillin and streptomycin (95% air, 5% CO2, 16 h, 37° C.) until retrieval for electrophysiological studies.
Small-diameter (<30 pF capacitance) neurons were studied because they display characteristics of nociceptors (Valdez-Morales E. E. et al., Am J Gastroenterol 2013, 108(10): 1634-1643). Changes in excitability were quantified by measuring rheobase. Whole-cell perforated patch-clamp recordings were made using Amphotericin B (240 μg/ml, Sigma Aldrich) in current clamp mode at room temperature. The recording chamber was perfused with external solution at 2 ml/min. Recordings were made using Multiclamp 700B or Axopatch 200B amplifiers, digitized by Digidata 1440A or 1322A, and processed using pClamp 10.1 software (Molecular Devices). Solutions had the composition (mM): pipette—K-gluconate 110, KC130, HEPES 10, MgCl2 1, CaCl2 2; pH 7.25 with 1 M KOH; external—NaCl 140, KCl 5 HEPES 10, glucose 10, MgCl2 1, CaCl2 2; pH to 7.3-7.4 with 3 M NaOH. […] Neurons were also preincubated with trypsin (50 nM, 10 min), NE (390 nM, 30 min), CS (500 nM, 60 min), or vehicle (37° C.), and washed. Rheobase was measured at T 0 or T 30 min after washing. To investigate mechanisms of protease-evoked effects, neurons were incubated with I-343 (100 nM, 300 nM, 10 μM, 30 min preincubation), SCH79797 (1 μM, 10 min), Dy4 (30 μM, 30 min), PS2 (15 μM, 30 min), PD98059 (50 μM, 30 min), GF109203X (10 μM, 30 min), or vehicle (preincubation and inclusion throughout). In experiments using the tripartite antagonist, neurons were preincubated with Compound 10 (30 μM, 60 min, 37° C.) or vehicle and washed. […]

[2] = biological target: T1, human (h) PAR2 (Homo sapiens, UniProt P55085); test: IP1 accumulation assay in KNRK-hPAR2 cells; settings: 100 nM 2F; 30 μM of antagonist; read-out: KNRK-PAR2 100 nM 2F: ND (inhibition of 2F at 30 μM of antagonist)
T1 construct: expressed in transfected cells; host or cells: KNRK cells (KNRK-hPAR2)
T1 sequence (P55085 26-397): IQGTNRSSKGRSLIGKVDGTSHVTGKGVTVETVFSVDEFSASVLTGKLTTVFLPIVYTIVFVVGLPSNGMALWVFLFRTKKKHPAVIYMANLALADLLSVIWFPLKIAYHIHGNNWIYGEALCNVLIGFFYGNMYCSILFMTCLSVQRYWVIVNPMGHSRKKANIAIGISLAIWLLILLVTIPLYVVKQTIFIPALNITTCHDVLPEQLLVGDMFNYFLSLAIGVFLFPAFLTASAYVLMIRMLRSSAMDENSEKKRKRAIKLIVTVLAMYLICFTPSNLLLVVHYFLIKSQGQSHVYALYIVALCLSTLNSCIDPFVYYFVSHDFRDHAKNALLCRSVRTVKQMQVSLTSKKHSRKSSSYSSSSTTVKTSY
Procedure: (§1) KNRK-hPAR2, KNRK or HT-29 cells were seeded at a density of 50×10^3 cells/well in a clear poly-d-lysine coated 96 well tissue culture plate. Following 24 h incubation at 37° C. and 5% CO2, media was removed and replaced with 80 μl IP1 stimulation buffer (10 mM HEPES, 1 mM CaCl2, 0.5 mM MgCl2, 4.2 mM KCl, 146 mM NaCl, 5.5 mM glucose, 50 mM LiCl). Following stimulation buffer addition, the wells received 10 μl of 10× antagonists or DMSO vehicle. All plates were further incubated at 37° C., 5% CO2 for 30 min. 10 μl of 2F or ATP was added to the plates and further incubated for 40 min. Following incubation, stimulation buffer was quickly removed by aspiration and replaced with 25 μl lysis buffer (IP-One HTRF® assay kit, Cisbio). Following incubation of the lysates at 37° C., 5% CO2 for 10′, 10 μl lysate was transferred to a 384-well OptiPlate (PerkinElmer) and detected using the IP-One HTRF® assay kit (Cisbio).
(§2) Compounds of the invention (added at 10×concentrations in a 10 μL volume) were incubated for 30 min prior to the addition of 10 μM ATP or 100 nM or 300 nM PAR2 agonist (2F; EC80, added at 10×concentrations in a 10 μL volume) and then further incubated for 40 min. After lysis, the inositol phosphate 1 was quantified with IP-One HTRF® assay kit, Cisbio. The data was analysed with Prism, GraphPad to calculate the IC50 values, shown below in Table 1.
(§3) Inhibition of PAR2 signaling with known PAR2 inhibitor I-343 (FIG. 14A) was investigated in HT-29 cells and HEK293 cells, which express endogenous PAR2, and in KNRK cells expressing human (h) PAR2. Accumulation of inositol phosphate-1 (IP1) was measured in response to the PAR2-selective agonist 2-Furoyl-LIGRLO-NH2 (2F), an analogue of the trypsin-exposed tethered ligand, or trypsin.
(§4) KNRK-hPAR2, KNRK, HEK293, or HT-29 cells were seeded at a density of 50×10^3 cells/well onto clear 96-well plates (PerkinElmer). After 24 h of culture, medium was replaced with IP1 stimulation buffer (10 mM HEPES, 1 mM CaCl2, 0.5 mM MgCl2, 4.2 mM KCl, 146 mM NaCl, 5.5 mM glucose, 50 mM LiCl; 37° C., 5% CO2.). Cells were pre-incubated with the antagonist or vehicle for 30 min prior to the addition of agonist. Cells were then further incubated for 40 min. Stimulation buffer was […]

[3] = biological target: T2, PAR2 (Homo sapiens, UniProt P55085); test: IP1 accumulation assay in HT-29 cells (endogenous PAR2); settings: 2F (300 nM)-induced IP1, HT-29 cells
T2 construct: HT-29 cells and HEK293 cells, which express endogenous PAR2; endogenous in cells; host or cells: HT-29
T2 sequence (P55085 26-397): T1 sequence (P55085 26-397)
Procedure: as §1, §2, §3, §4

[4] = tested on: mouse DRG neurons; test: Patch clamp rheobase of DRG neurons: protease-induced hyperexcitability of nociceptors
[5] = I-343 10 μM, Dy4 30 μM, PD98059 50 μM

SMILES | excitability of neurons treated with HC supernatant [1] | rheobase at 30 min, IBS-D supernatant [1] | persistent actions of IBS-D supernatant on nociceptor excitability ([1]; 30 μM, 60 min preincubation, washed) | inhibition at 30 µM [2] | IC50 ([3]; read-out: HT-29 300 nM 2F (IC50)) | IC50 ([3]; read-out: HT-29 300 nM 2F pIC50 ± SEM (converted)) | baseline rheobase [4] | initial excitability at 0 min after trypsin [4] | persistent response at 30 min after trypsin [4] | IBS-D-induced hyperexcitability of nociceptors [1, 5] | rheobase of neurons exposed to HC supernatant [1, 5] | initial trypsin-induced hyperexcitability ([4]; PD98059 50 μM, GF109203X 10 μM) | persistent trypsin-induced hyperexcitability ([4]; PD98059 50 μM, GF109203X 10 μM)
CC(C)CCCC(C)[C@H]1CCC2C3CCC4C[C@@H](OC(=O)CC(NC(=O)CCOCCOCCOCCOCCOCCOCCOCCOCCOCCOCCOCCOCCNC(=O)Cn5cc(C(=O)N6CCN(C(=O)c7cn8nc(-c9ccc(F)cc9)cc(C(C)(C)C)c8n7)C(C)(C)C6)nn5)C(N)=O)CC[C@]4(C)C3CC[C@@]21C (stereo in doubt) [Compound 10, (3S,10S,13R,17R)-10,13-dimethyl-17-((R)-6-methylheptan-2-yl)hexadecahydro-1H-cyclopenta[a]phenanthren-3-yl (44S)-1-(4-(4-(8-(tert-butyl)-6-(4-fluorophenyl)imidazo[1,2-b]pyridazine-2-carbonyl)-3,3-dimethylpiperazine-1-carbonyl)-1H-1,2,3-triazol-1-yl)-44-carbamoyl-2,42-dioxo-6,9,12,15,18,21,24,27,30,33,36,39-dodecaoxa-3,43-diazahexatetracontan-46-oate] | did not affect | 64.7±3.84 pA | completely prevented | < 50% | 670 nM | 661 nM | no effect | did not affect | prevented | – | – | – | –
COc1cccc(-c2cc(=O)c3ccccc3o2)c1N [PD98059] | – | – | – | – | – | – | – | – | – | abolished | no effect | did not affect | prevented
